Laboratory results published in US20260256925A1, “INDAZOLE DERIVATIVES AS ESTROGEN RECEPTOR DEGRADERS” (REGENTS OF THE UNIVERSITY OF MICHIGAN, priority 2022, published 2026).

Assays:
ERα_LBD (GST) = biological target: T1, ERα_LBD (GST) (Homo sapiens, UniProt P03372); assay: IC50 measurements for binding to ERα_LBD (GST), LanthaScreen TR-FRET ERα competitive binding assay; conditions: Fluormone ES2 Green tracer, 60 min, read-out: ERα HTRF IC50
T1 construct: ERα_LBD (GST) protein: 4 nM; purchased ThermoFisher A15887
T1 sequence (P03372 311-547 limits assumed): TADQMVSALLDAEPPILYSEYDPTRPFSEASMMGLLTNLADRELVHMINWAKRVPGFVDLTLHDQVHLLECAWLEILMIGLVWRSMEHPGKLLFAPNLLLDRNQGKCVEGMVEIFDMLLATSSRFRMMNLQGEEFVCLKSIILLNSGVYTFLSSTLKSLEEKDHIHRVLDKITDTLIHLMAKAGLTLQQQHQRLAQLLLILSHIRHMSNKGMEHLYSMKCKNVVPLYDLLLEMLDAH
Method: In vitro Assay: IC50 Measurements for binding to ERα_LBD (GST)·
Final assay conditions: • 1. ERα_LBD (GST) protein: 4 nM • 2. Tb Anti-GST: 2 nM • 3. Fluormone ES2 Green tracer: 3 nM • 4. Incubation time: 60 min • 5. DMSO: 1% • 6. Assay buffer: Adding 1M DTT to Nuclear receptor Buffer K for final 5 mM DTT. • 7. ZPE: 1% DMSO • 8. HPE: 1 μM ARV_471 • 9. LanthaScreen® TR-FRET ERα Competitive Binding Assay (ThermoFisher, #A^15887)
100× Compound preparation: • 1) Cherry pick 2 μL 10 mM compound stock to column 1 of a 384 intermediate plate • 2) Add 18 μL DMSO to column 1 to dilute compound to 1 mM. • 3) Transfer 10 μL 1 mM compound to column 1 of a LDV plate. • 2) Add 6 μl DMSO to column 2-10 of the LDV plate. • 3) Compounds undergo 3-fold serial dilution (3 μL+6 μL) in DMSO. • 4) Transfer 120 nL compound solution to assay plate.
Prepare complete nuclear receptor buffer K by adding 1 M DTT to nuclear receptor buffer K for a final concentration of 5 mM DTT. Complete nuclear receptor buffer K must be prepared fresh daily. Prepare 2× protein solution using complete nuclear receptor buffer K containing 8 nM ERα_LBD (GST) and 4 nM Tb Anti-GST. Then, prepare 2× Fluormone ES2 Green tracer (6 nM) using complete nuclear receptor buffer K. Add 6 μL 2× Fluormone ES2 green tracer into a compound plate (PerkinElmer 6008289) by dragonfly with one-tips-addition. Subsequently, add 6 μL 2× protein solution into the plate. Briefly and gently mix the 384-well plate on a plate shaker and incubate at room temperature protected from light for 60 min. The plate is sealed with a cover to minimize evaporation. Read the plate at wavelengths of 520 nm and 495 nm. Calculate the TR-FRET ratio by dividing the emission signal at 520 nm by the emission signal at 495 nm. Generate a binding curve by plotting the emission ratio vs. the log [ligand]. To determine the IC50 value, fit the data using XL-fit for a sigmoidal dose-response.

ER [1] = biological target: T2, ER (Homo sapiens, UniProt P03372); assay: In-cell Western (ICW) ER degradation assay in T47D cells; format: cell-based; conditions: for Dmax: T47D, read-out: ER T47D ICW Dmax (%)
T2 construct: endogenous in cells; probably T47D or MCF-7
T2 sequence (P03372 1-595): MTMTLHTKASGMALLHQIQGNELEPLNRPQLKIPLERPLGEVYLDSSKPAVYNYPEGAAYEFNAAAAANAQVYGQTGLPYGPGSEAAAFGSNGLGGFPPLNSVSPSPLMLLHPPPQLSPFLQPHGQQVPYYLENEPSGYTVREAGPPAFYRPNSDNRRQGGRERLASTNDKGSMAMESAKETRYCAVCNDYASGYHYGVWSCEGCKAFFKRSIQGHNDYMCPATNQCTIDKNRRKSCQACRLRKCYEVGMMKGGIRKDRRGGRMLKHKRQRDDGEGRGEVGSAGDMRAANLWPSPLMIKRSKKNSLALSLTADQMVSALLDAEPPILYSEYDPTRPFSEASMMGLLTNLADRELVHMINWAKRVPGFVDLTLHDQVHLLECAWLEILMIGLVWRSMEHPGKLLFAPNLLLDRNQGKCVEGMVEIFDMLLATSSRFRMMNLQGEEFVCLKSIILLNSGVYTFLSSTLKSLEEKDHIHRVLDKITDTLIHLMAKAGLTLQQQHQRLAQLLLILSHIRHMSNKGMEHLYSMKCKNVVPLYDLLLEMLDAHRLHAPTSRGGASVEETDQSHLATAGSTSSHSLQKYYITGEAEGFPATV
Method: (§1) ERa degradative activity of compounds can be assessed in MCF-7 and T47D Cells. MCF-7 and T47D cell are seeded and are subsequently treated with the compounds at certain concentrations (e.g., 0.02 to 300 nM). DMSO can be used as vehicle control. Cells are fixed and are blocked with Intercept (PBS) Blocking Buffer (e.g., Li—COR, Odyssey Blocking Buffer), and are stained with ER (e.g., 1:500, Cell signaling) primary antibody for overnight at cold room. Secondary Antibody (e.g., IRDye 800CW Goat anti-Rabbit IgG) and CellTag 700 Stain are added in Intercept (PBS) Blocking Buffer. Finally, cell plate is placed in incubator to dry. Image and signal are captured on Odyssey® DLx Imaging System.
(§2) In-cell Western (ICW) assays in MCF-7 and T47D cell lines.
(§3) Procedures for ICW assays
(§4) In vitro Assay: MCF-7 and T47D ICW assay
(§5) Day 3: After 16 hrs of compounds treatment, cells were fixed by 4% PFA and permeabilized with elution buffer (0.1% Triton X-100 in 1% PBS Solution). Subsequently, cells were blocked with Intercept (PBS) Blocking Buffer (Li—COR, Odyssey Blocking Buffer), and were stained with ER (1:500, Cell signaling) primary antibody for overnight at cold room.
(§6) Day 4: Remove the buffer, add IRDye 800CW Goat anti-Rabbit IgG Secondary Antibody (1:2000) and CellTag 700 Stain (1:500) in Intercept (PBS) Blocking Buffer. Finally, cell plate is placed in incubator to dry. Image and signal were captured on Odyssey® DLx Imaging System.

CRBN/DDB1 = biological target: T3, CRBN/DDB1 (Homo sapiens, UniProt Q96SW2); format: binding; conditions: HTRF, Cy5-labeled Thalidomide probe
T3 construct: purchased Wuxi RP210521GA
Method: The binding potency was determined using HTRF assay technology (Perkin Elmer). Compounds were serially diluted in DMSO and 0.2 μL volume was transferred to white 384-well plate.

ER [2] = biological target: T2, ER; assay: In-cell Western (ICW) ER degradation assay in MCF-7 cells; format: cell-based; conditions: for DC50: read-out: ER MCF7 ICW DC50
Method: as §1, §2, §3, §4, §5, §6

[3] = MCF7, read-out: ER MCF7 ICW Dmax (%)
[4] = MCF7, MCF-7 cells, 16 hrs, read-out: ER MCF7 ICW Dmax (%)

T3 sequence (Q96SW2 whole entry): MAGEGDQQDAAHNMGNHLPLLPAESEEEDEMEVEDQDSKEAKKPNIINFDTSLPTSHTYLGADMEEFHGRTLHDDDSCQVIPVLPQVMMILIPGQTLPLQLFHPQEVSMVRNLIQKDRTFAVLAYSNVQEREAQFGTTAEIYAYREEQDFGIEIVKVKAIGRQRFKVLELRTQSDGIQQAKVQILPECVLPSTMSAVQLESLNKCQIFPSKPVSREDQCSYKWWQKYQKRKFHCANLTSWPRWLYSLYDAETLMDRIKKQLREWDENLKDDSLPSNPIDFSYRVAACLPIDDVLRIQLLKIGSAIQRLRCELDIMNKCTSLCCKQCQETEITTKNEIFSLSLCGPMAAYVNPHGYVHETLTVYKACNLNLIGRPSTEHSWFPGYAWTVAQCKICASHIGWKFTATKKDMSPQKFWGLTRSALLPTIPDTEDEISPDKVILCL
T3 sequence (Q16531 whole entry partner): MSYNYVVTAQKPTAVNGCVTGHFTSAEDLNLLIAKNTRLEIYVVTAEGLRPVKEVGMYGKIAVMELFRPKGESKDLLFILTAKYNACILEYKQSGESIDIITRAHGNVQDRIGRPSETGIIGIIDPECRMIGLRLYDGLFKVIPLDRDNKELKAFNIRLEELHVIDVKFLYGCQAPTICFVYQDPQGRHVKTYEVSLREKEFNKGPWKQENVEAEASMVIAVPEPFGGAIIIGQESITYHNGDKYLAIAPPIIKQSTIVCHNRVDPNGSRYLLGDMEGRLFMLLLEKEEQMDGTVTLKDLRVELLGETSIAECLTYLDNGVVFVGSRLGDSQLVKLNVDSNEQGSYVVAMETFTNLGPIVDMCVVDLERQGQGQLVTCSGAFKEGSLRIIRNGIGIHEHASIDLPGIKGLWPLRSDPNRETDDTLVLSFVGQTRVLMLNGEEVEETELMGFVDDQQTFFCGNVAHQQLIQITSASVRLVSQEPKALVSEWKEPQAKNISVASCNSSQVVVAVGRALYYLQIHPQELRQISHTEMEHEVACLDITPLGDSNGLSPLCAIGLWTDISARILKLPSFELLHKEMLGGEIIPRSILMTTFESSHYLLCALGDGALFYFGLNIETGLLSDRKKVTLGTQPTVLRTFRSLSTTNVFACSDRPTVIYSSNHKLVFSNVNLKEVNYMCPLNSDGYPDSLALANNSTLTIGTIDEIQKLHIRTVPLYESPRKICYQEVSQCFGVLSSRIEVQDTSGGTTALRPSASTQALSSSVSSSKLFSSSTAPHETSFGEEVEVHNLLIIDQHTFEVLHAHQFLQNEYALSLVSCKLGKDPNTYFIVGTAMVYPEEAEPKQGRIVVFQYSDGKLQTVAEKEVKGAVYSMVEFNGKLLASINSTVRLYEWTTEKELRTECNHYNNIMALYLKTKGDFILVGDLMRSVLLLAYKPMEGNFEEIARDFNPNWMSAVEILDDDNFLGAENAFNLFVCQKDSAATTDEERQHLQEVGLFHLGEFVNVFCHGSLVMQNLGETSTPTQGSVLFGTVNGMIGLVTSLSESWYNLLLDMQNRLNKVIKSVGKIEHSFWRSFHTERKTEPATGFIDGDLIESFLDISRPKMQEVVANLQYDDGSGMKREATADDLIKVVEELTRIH

Row | SMILES | IC50 (ERα_LBD (GST)) [nM] | DC50 (ER [1]; T47D cells, 16 hrs) [nM] | Dmax (ER [1]) [%] | IC50 (CRBN/DDB1) [nM] | Dmax (ER [2]; [3]) [%] | DC50 (ER [2]; MCF-7 cells, 16 hrs) [nM] | Dmax (ER [1]; T47D cells, 16 hrs) [%] | Dmax (ER [2]; [4]) [%] | ER T47D ICW Dmax (%) (ER [1]; T47D cells, 16 hrs) | ER MCF7 ICW Dmax (%) (ER [2]; MCF-7 cells, 16 hrs)
1 | C[C@@H]1Cc2c(ccc3[nH]ncc23)[C@@H](c2ccc(N3CCC4(CC3)CC(CN3CCC5(CC3)COc3cc6c(cc35)CN([C@H]3CCC(=O)NC3=O)C6=O)C4)cn2)N1CC1(F)CC1 [Compound A5, (S)-3-(1′-((7-(6-((6S,8R)-7-((1-fluorocyclopropyl)methyl)-8-methyl-6,7,8,9-tetrahydro-3H-pyrazolo[4,3-f]isoquinolin-6-yl)pyridin-3-yl)-7-azaspiro[3.5]nonan-2-yl)methyl)-7-oxo-5,7-dihydro-2H,6H-spiro[furo[2,3-f]isoindole-3,4′-piperidin]-6-yl)piperidine-2,6-dione] | < 10 | < 1 | 50 to 75 | 50 to 500 | 50 to 75 | < 1 | – | – | – | –
2 | C[C@@H]1Cc2c(ccc3[nH]ncc23)[C@@H](c2ccc(N3CC4(CCC(CN5CCN6c7ccc8c(c7OC[C@H]6C5)CN([C@H]5CCC(=O)NC5=O)C8=O)CC4)C3)cn2)N1CC1(F)CC1 [Compound A11, (S)-3-((R)-7-((2-(6-((6S,8R)-7-((1-fluorocyclopropyl)methyl)-8-methyl-6,7,8,9-tetrahydro-3H-pyrazolo[4,3-f]isoquinolin-6-yl)pyridin-3-yl)-2-azaspiro[3.5]nonan-7-yl)methyl)-1-oxo-1,3,5,5a,6,7,8,9-octahydro-2H-pyrazino[1′,2′: 4,5][1,4]oxazino[2,3-e]isoindol-2-yl)piperidine-2,6-dione] | ≥ 10 | < 1 | – | – | – | < 1 | > 75 | > 75 | – | –
3 | C[C@@H]1Cc2c(ccc3[nH]ncc23)[C@@H](c2ccc(N3CCC4(CC3)CC(CN3CCN5c6ccc7c(c6OC[C@H]5C3)CN([C@H]3CCC(=O)NC3=O)C7=O)C4)cn2)N1CC1(F)CC1 [Compound A4, (S)-3-((R)-7-((7-(6-((6S,8R)-7-((1-fluorocyclopropyl)methyl)-8-methyl-6,7,8,9-tetrahydro-3H-pyrazolo[4,3-f]isoquinolin-6-yl)pyridin-3-yl)-7-azaspiro[3.5]nonan-2-yl)methyl)-1-oxo-1,3,5,5a,6,7,8,9-octahydro-2H-pyrazino[1′,2′:4,5][1,4]oxazino[2,3-e]isoindol-2-yl)piperidine-2,6-dione] | < 10 | < 1 | – | < 50 | – | < 1 | > 75 | 50 to 75 | – | –
4 | C[C@@H]1Cc2c(ccc3[nH]ncc23)[C@@H](c2ccc(N3CCC4(CC3)CC(CN3CCN5c6ccc7c(c6OC[C@H]5C3)CN([C@H]3CCC(=O)NC3=O)C7=O)CO4)nc2)N1CC(F)(F)F (stereo partly drawn) [Compound A22, (3S)-3-((5aR)-7-((8-(5-((6S,8R)-8-methyl-7-(2,2,2-trifluoroethyl)-6,7,8,9-tetrahydro-3H-pyrazolo[4,3-f]isoquinolin-6-yl)pyridin-2-yl)-1-oxa-8-azaspiro[4.5]decan-3-yl)methyl)-1-oxo-1,3,5,5a,6,7,8,9-octahydro-2H-pyrazino[1′,2′:4,5][1,4]oxazino[2,3-e]isoindol-2-yl)piperidine-2,6-dione] | < 10 | < 1 | – | 50 to 500 | – | < 1 | 50 to 75 | 50 to 75 | – | –
5 | COc1cc(N2CCC(CN3CCN4c5ccc6c(c5OCC4C3)CN(C3CCC(=O)NC3=O)C6=O)CC2)ccc1C1c2ccc3[nH]ncc3c2CC(C)N1CC(F)F (stereo in doubt) [Compound A8, (R)-3-((S)-7-((1-(4-((6R,8S)-7-(2,2-difluoroethyl)-8-methyl-6,7,8,9-tetrahydro-3H-pyrazolo[4,3-f]isoquinolin-6-yl)-3-methoxyphenyl)piperidin-4-yl)methyl)-1-oxo-1,3,5,5a,6,7,8,9-octahydro-2H-pyrazino[1′,2′:4,5][1,4]oxazino[2,3-e]isoindol-2-yl)piperidine-2,6-dione] | ≥ 10 | < 1 | – | 500 to 5000 | – | < 1 | – | – | A (“A”: >=75%) | A (“A”: >=75%)
6 | C[C@@H]1Cc2c(ccc3[nH]ncc23)[C@@H](c2ccc(N3CC4(CCC(CN5CCN6c7ccc8c(c7OC[C@H]6C5)CN(C5CCC(=O)NC5=O)C8=O)CC4)C3)cn2)N1CC1(F)CC1 (stereo partly drawn) [Compound A16, (S)-3-((R)-7-((2-(6-((6S,8R)-7-((1-fluorocyclopropyl)methyl)-8-methyl-6,7,8,9-tetrahydro-3H-pyrazolo[4,3-f]isoquinolin-6-yl)pyridin-3-yl)-2-azaspiro[3.5]nonan-7-yl)methyl)-1-oxo-1,3,5,5a,6,7,8,9-octahydro-2H-pyrazino[1′,2′: 4,5][1,4]oxazino[2,3-e]isoindol-2-yl)piperidine-2,6-dione] | < 10 | < 1 | – | – | > 75 | < 1 | > 75 | – | – | –
7 | C[C@@H]1Cc2c(ccc3[nH]ncc23)C(c2ccc(N3CCC4(CC3)CC(CN3CCN5c6ccc7c(c6OC[C@H]5C3)CN([C@H]3CCC(=O)NC3=O)C7=O)C4)nc2)N1CC(F)(F)F (stereo in doubt) [Compound A25, (S)-3-((R)-7-((7-(5-((6S,8R)-8-methyl-7-(2,2,2-trifluoroethyl)-6,7,8,9-tetrahydro-3H-pyrazolo[4,3-f]isoquinolin-6-yl)pyridin-2-yl)-7-azaspiro[3.5]nonan-2-yl)methyl)-1-oxo-1,3,5,5a,6,7,8,9-octahydro-2H-pyrazino[1′,2′: 4,5][1,4]oxazino[2,3-e]isoindol-2-yl)piperidine-2,6-dione] | < 10 | < 1 | – | – | > 75 | < 1 | > 75 | – | – | –
